pIC50: −log10 of the molar value. One block for each molecule: values may come before it.
Experiments:
[1] = system: HCT-116, BxPC-3, A549, BT-549, LNCaP, MIA Paca-2 tumor cells; test: In vitro cell proliferation (alamarBlue); type: cell-based; details: Homo sapiens; 96 hr incubation; read-out: IC50 against at least one of HCT-116, MIA Paca-2, or LNCaP cells
Procedure: Compounds are tested for their ability to inhibit cell proliferation and viability. The metabolic reduction of alamarBlue™ (Biosource cat. no. DAL1100) was used to measure cell viability.
The anti-proliferative activity of compounds is studied using a panel of tumor cells: HCT-116 (human colorectal carcinoma cell line), BxPC-3 (human pancreatic adenocarcinoma cell line), A549 (human lung carcinoma cell line), BT-549 (human breast carcinoma cell line), LNCaP (human prostate carcinoma cell line), and MIA Paca-2 (human pancreatic carcinoma cell line). These adherent cells (1,000-20,000) are plated in complete media (RPMI-1640, DMEM, F12K, or McCoy's 5A) containing 10% fetal bovine serum (Gibco) in tissue culture treated 96-well plates (Costar) and placed in a humidified incubator at 37° C., […], 5% CO2 for 18-24 hr. Media was removed and replaced with 90 μL fresh media. Compound is diluted in media containing 3% DMSO and added to cells. Background (C^−) relative fluorescent units are determined by incubating alamarBlue™ reagent for 6 hr using untreated cells plated 18 hr earlier. Untreated cells or cells containing compound are incubated for 96 hr. During the last 6 hr of the incubation period, alamarBlue™ reagent (10 μL) was added to each well and incubated in a humidified incubator at 37° C., […], 5% CO2.
AlamarBlue™ reduction is measured in a fluorescence plate reader with instrument settings for excitation at 530 nm and emission at 590 nm. […] Compound IC50 values are determined from % inhibition versus compound concentration curve plots using GraphPad Prism™ according to the 4 parameter logistic equation Y=Bottom+(Top−Bottom)/1+10^((Log EC50−X)*HillSlope)).

[2] = system: human MiaPaCa-2 pancreatic xenografts; test: MiaPaCa-2 xenograft model, Example 88 alone and in combination with erlotinib; type: in vivo, athymic mice; details: for Median Tumor Size: Example 88 10 mg/kg i.p. b.i.d. 10 days, erlotinib 50 mg/kg p.o. daily 14 days; for complete responders (CR, 100% reduction in tumor size) / partial responders (PR, greater than 50% reduction in tumor size): day 42, out of 8 mice, 10 mg/kg
Procedure: (§1) Compounds were dosed on the following schedules:
2) Erlotinib was dosed 50 mg/kg, p.o., daily for 14 days (days 1-14).
Mice-bearing sc tumors were randomized, and treatment groups consisted of 8 mice.

[3] = system: human MiaPaCa-2 pancreatic xenografts; test: MiaPaCa-2 xenograft model, Example 88 alone and in combination with gemcitabine; type: in vivo, athymic mice; details: for Median Tumor Size: Example 88 10 mg/kg i.p. b.i.d. 10 days, gemcitabine 120 mg/kg i.p. q3d×4
Procedure: as §1
2) Gemcitabine was dosed 120 mg/kg, i.p., q3d×4 (days 1, 4, 7, 10).
Drug treatment started when mean tumor sizes reached approximately 120 mg (day 8). Mice-bearing sc tumors were randomized, and treatment groups consisted of 8 mice. The median tumor size for each group at various points in the study are listed below in Table B.

[4] = day 8 of study (treatment start)
[5] = day 42, out of 8 mice, Example 88 10 mg/kg, gemcitabine 120 mg/kg

Compound: C#Cc1cccc(Nc2ncnc3cc(OCCOC)c(OCCOC)cc23)c1 [Erlotinib, erlotinib, reference compound]
Median Tumor Size [2, 4]: 120 mg
Median Tumor Size ([2]; day 10 of study): 144 mg
Median Tumor Size ([2]; day 13 of study): 192 mg
Median Tumor Size ([2]; day 16 of study): 267 mg
Median Tumor Size ([2]; day 20 of study): 363 mg
inhibition of tumor growth relative to vehicle-treated tumors ([2]; day 23, Example 88 10 mg/kg, erlotinib 50 mg/kg): 16%
Median Tumor Size ([2]; day 23 of study): 507 mg
Median Tumor Size ([2]; day 27 of study): 700 mg
Median Tumor Size ([2]; day 30 of study): 908 mg
Median Tumor Size ([2]; day 34 of study): 1224 mg
Median Tumor Size ([2]; day 37 of study): 1296 mg
complete responders (CR, 100% reduction in tumor size) ([2]; erlotinib 50 mg/kg): 0/8
partial responders (PR, greater than 50% reduction in tumor size) ([2]; erlotinib 50 mg/kg): 0/8
Median Tumor Size ([2]; day 42 of study): 1368 mg

Compound: Nc1ccn([C@@H]2O[C@H](CO)[C@@H](O)C2(F)F)c(=O)n1 [Gemcitabine, reference compound]
Median Tumor Size [3, 4]: 120 mg
Median Tumor Size ([3]; day 10 of study): 144 mg
Median Tumor Size ([3]; day 13 of study): 144 mg
Median Tumor Size ([3]; day 16 of study): 153 mg
Median Tumor Size ([3]; day 20 of study): 221 mg
inhibition of tumor growth relative to vehicle-treated tumors ([3]; day 23, Example 88 10 mg/kg, gemcitabine 120 mg/kg): 60%
Median Tumor Size ([3]; day 23 of study): 246 mg
Median Tumor Size ([3]; day 27 of study): 336 mg
Median Tumor Size ([3]; day 30 of study): 472 mg
Median Tumor Size ([3]; day 34 of study): 675 mg
Median Tumor Size ([3]; day 37 of study): 824 mg
complete responders (CR, 100% reduction in tumor size) [3, 5]: 0/8
partial responders (PR, greater than 50% reduction in tumor size) [3, 5]: 0/8
Median Tumor Size ([3]; day 42 of study): 988 mg

Compound: O=C(Nc1ccc2cn[nH]c2c1)c1ccc2[nH]c(Nc3ccccc3C(F)(F)F)nc2c1 [Example 35, 2-(2-Trifluoromethylphenylamino)-3H-benzimidazole-5-carboxylic acid (1H-indazol-6-yl)-amide]
pIC50 [1]: ≥ 5.52

Compound: Cc1cccnc1Nc1nc2cc(C(=O)Nc3ccc4cn[nH]c4c3)ccc2[nH]1 [Example 36, 2-(3-Methylpyridin-2-ylamino)-3H-benzimidazole-5-carboxylic acid(1H-indazol-6-yl)-amide]
pIC50 [1]: ≥ 5.52

Compound: CCc1cccc(CC)c1Nc1nc2cc(C(=O)Nc3ccc4cn[nH]c4c3)ccc2[nH]1 [Example 91, 2-(2,6-diethylphenylamino)-3H-benzimidazole-5-carboxylic acid (1H-indazol-6-yl)-amide]
complete responders (CR, 100% reduction in tumor size) ([2]; erlotinib 50 mg/kg): 0/8
partial responders (PR, greater than 50% reduction in tumor size) ([2]; erlotinib 50 mg/kg): 0/8

Compound: CC(C)c1ccccc1Nc1nc2cc(C(=O)Nc3ccc4cn[nH]c4c3)ccc2[nH]1 [Example 27, 2-(2-Isopropylphenylamino)-3H-benzimidazole-5-carboxylic acid (1H-indazol-6-yl)-amide]
pIC50 [1]: ≥ 5.52

Next, values leading:

pIC50 [1]: ≥ 5.52
Compound: CC(C)c1ccccc1Nc1nc2cc(C(=O)Nc3ccc4cn[nH]c4c3)c(N3CCN(C)CC3)cc2[nH]1 [Example 48, 2-(2-Isopropylphenylamino)-6-(4-methyl-piperazin-1-yl)-1H-benzimidazole-5-carboxylic acid (1H-indazol-6-yl)-amide]

pIC50 [1]: ≥ 5.52
Compound: Cc1cccnc1Nc1nc2cc(C(=O)Nc3ccc4cn[nH]c4c3)c(N3CCOCC3)cc2[nH]1 [Example 60, 2-(3-Methylpyridin-2-ylamino)-6-morpholin-4-yl-1H-benzimidazole-5-carboxylic acid (1H-indazol-6-yl)-amide]

pIC50 [1]: ≥ 5.52
Compound: O=C(Nc1ccc2cn[nH]c2c1)c1cc2nc(Nc3ccccc3C(F)(F)F)[nH]c2cc1N1CCCCC1 [Example 57, 6-Piperidin-1-yl-2-(2-trifluoromethyl-phenylamino)-1H-benzimidazole-5-carboxylic acid (1H-indazol-6-yl)-amide]

pIC50 [1]: ≥ 5.52
Compound: Cc1cccnc1Nc1nc2cc(C(=O)Nc3ccc4cn[nH]c4c3)c(N3CCN(C)CC3)cc2[nH]1 [Example 58, 6-(4-Methyl-piperazin-1-yl)-2-(3-methyl-pyridin-2-ylamino)-1H-benzimidazole-5-carboxylic acid (1H-indazol-6-yl)-amide]

pIC50 [1]: ≥ 5.52
Compound: O=C(Nc1ccc2cn[nH]c2c1)c1cc2nc(Nc3ccccc3C(F)(F)F)[nH]c2cc1N1CCOCC1 [Example 54, 6-Morpholin-4-yl-2-(2-trifluoromethylphenylamino)-1H-benzimidazole-5-carboxylic acid (1H-indazol-6-yl)-amide]

pIC50 [1]: ≥ 5.52
Compound: CN1CCN(c2cc3[nH]c(Nc4ccccc4C(F)(F)F)nc3cc2C(=O)Nc2ccc3cn[nH]c3c2)CC1 [Example 50, 6-(4-Methylpiperazin-1-yl)-2-(2-trifluoromethyl-phenylamino)-1H-benzimidazole-5-carboxylic acid (1H-indazol-6-yl)-amide]

From patent publication US8377983B2, “Benzazole derivatives, compositions, and methods of use as aurora kinase inhibitors” (TransTech Pharma, Inc., priority 2006, dated 2013)
